Laboratory results: article PMC9013686, “Inter-individual variation in chlorpyrifos toxicokinetics characterized by physiologically based kinetic (PBK) and Monte Carlo simulation comparing human liver microsome and Supersome™ cytochromes P450 (CYP)-specific kinetic data as model input” (Archives of Toxicology, 2022)
Where “and” joins values, the source holds several entries; their conditions need not be identical. Equal entries are not always repeated. Where two headings read alike, the source gives them in different places.

Assays:
CYP3A4 = CYP3A4 (Homo sapiens, UniProt P08684); conditions: Supersome CYP3A4; bioactivation of CPF; ref Foxenberg et al. ([2007]); cited from earlier work
rat liver microsomes = conditions: bioactivation of CPF, biphasic kinetics; ref Ma and Chambers ([1995]); cited from earlier work
RBC AChE = conditions: ref USEPA (2014); cited from earlier work
[1] = cited from earlier work
CYP1A2 = target: T1, CYP1A2 (Homo sapiens, UniProt P05177); experiment: Supersome CYP1A2 kinetic incubations; type: in vitro ADME; parameters: purchased Corning (Amsterdam, The Netherlands); host or cells: baculovirus-transfected insect cells; conditions: for Scaled Vmax(app): CYP1A2 scaled to whole liver by Eq. 3; for Vmax (app) / Km: Supersome CYP1A2; for Km: human, recombinant CYP1A2 Supersomes, pH 7.4, Km(app)
T1 sequence (P05177 2-516 limits assumed): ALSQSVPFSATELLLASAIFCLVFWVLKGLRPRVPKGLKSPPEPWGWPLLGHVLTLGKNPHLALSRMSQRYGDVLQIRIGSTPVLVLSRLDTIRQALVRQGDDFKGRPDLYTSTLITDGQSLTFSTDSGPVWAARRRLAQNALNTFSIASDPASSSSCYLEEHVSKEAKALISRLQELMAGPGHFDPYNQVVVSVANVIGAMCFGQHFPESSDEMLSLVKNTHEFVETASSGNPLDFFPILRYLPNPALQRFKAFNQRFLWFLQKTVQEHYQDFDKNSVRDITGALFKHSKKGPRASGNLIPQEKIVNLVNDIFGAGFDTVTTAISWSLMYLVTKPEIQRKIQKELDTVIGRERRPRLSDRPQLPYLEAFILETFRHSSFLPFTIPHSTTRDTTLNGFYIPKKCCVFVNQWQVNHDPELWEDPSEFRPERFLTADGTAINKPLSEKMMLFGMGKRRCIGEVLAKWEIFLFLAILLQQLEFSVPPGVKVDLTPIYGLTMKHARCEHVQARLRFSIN
Method: (§1) The final incubations were carried out in 50 mM Tris–HCl (pH 7.4) containing 5 mM MgCl2, 1 mM EDTA (as an A-esterase PON1 inhibitor) (Bizoń and Milnerowicz [2018]), 50 µM iso-OMPA (as a B-esterases inhibitor) (Lane et al. [2006]), Supersome™ isoform (at final concentration of 0.005 nmol CYP/ml for 1A2, 0.001 nmol CYP/ml for 2B6, 0.01 nmol CYP/ml for 2C19, and 0.01 nmol CYP/ml for 3A4) and CPF at different final concentrations (0.05, 0.1, 0.25, 0.5, 1, 5 and 10 µM for 1A2, 0.05, 0.1, 0.25, 0.5, 1, 5 10 and 25 µM for 2B6, 1, 2.5, 5, 10, 25 and 50 µM for 2C19, and 0.5, 1, 2.5, 5, 10, 25 and 50 µM for 3A4), which were added from 100 times concentrated stock solutions in ACN. After 1 min preincubation in a 37 °C water bath, 5 µl NADPH (final concentration 1 mM) was added to the incubation system. Control incubations were performed by replacing NADPH with the same amount of Tris–HCl (pH 7.4). The total volume of the incubation mixtures was 200 µl. The incubations lasted for 2 min at 37 °C and were terminated by addition of 50 µl ice cold ACN and subsquently put on ice. After that, samples were centrifuged at 16,000 g (4 ℃) for 5 min and supernatants of samples were separated into two equal portions for Ultra-Performance Liquid Chromatography-Photodiode Array (UPLC-PDA) and Liquid Chromatography Mass Spectrometry (LC–MS/MS) analysis, respectively.
(§2) To normalize for differences in intrinsic CYP activity between Supersome™ and pooled HLMs and enable scaling of the activities to the in vivo situation, CYP-specific ISEF values need to be established. […] The incubation method was similar as used for the CPF kinetic incubation assay described above, except that certain incubation conditions were replaced by the conditions listed in Table 1. The samples obtained were analyzed by UPLC-PDA for acetaminophen, 4-hydroxymephenytoin, and 6β-hydroxytestosterone formation catalyzed by 1A2, 2C19 and 3A4, or LC–MS/MS for (±)-hydroxybupropion formation catalyzed by 2B6.
(§3) As mentioned before, the in vitro apparent kinetic parameters (Vmax and Km) for pathway 1 and pathway 2 in the HLM-based approach, and pathway 3 in both approaches were all obtained directly from reported studies using pooled HLMs (Buratti et al. [2003]; Sams et al. [2004]; Zhao et al. [2019]). Therefore, no extra calculations were required to define these parameters. The kinetic parameters for the ISEF calculation, pathway 1 and 2 in the Supersome™-based approach, and pathway 4 in both approaches (25 individuals) were all obtained by fitting the experimental data to the Michaelis–Menten model using GraphPad (GraphPad Prism 5.0 software, San Diego, CA, USA). It should be noted that the kinetic parameters for pathway 4 used in the two approaches were calculated as mean of the kinetic parameters (Vmax and Km) obtained using 25 individual HP samples (with correction for total protein concentration of each plasma sample).
(§4) The in vivo Kmi values were assumed to be equal to the apparent Kmi(app) values (µM) obtained in the in vitro incubations, while the in vivo Vmaxi for each CYP isoform was derived from their corresponding apparent CYP isoform Vmaxi(app) (pmol/min/pmolCYP) using Eq. 3:3 Vmaxi=Vmaxiapp×CYPiabundance×ISEF×60×MPL×1000×VL/1,000,000,

CYP2C19 = CYP2C19 (Homo sapiens, UniProt P33261); experiment: Supersome CYP2C19 kinetic incubations; type: in vitro ADME; parameters: purchased Corning (Amsterdam, The Netherlands); host or cells: baculovirus-transfected insect cells; conditions: for Scaled Vmax(app): CYP2C19 scaled to whole liver by Eq. 3; for Vmax (app) / Km: Supersome CYP2C19; for Km: human, recombinant CYP2C19 Supersomes, pH 7.4, Km(app)
Method: as §1, §2, §3, §4

[2] = Pathway 1 (bioactivation of CPF to CPO)
[3] = Pathway 2 (detoxification of CPF to TCPy)

Chain of CYP2C19 (P33261 whole entry): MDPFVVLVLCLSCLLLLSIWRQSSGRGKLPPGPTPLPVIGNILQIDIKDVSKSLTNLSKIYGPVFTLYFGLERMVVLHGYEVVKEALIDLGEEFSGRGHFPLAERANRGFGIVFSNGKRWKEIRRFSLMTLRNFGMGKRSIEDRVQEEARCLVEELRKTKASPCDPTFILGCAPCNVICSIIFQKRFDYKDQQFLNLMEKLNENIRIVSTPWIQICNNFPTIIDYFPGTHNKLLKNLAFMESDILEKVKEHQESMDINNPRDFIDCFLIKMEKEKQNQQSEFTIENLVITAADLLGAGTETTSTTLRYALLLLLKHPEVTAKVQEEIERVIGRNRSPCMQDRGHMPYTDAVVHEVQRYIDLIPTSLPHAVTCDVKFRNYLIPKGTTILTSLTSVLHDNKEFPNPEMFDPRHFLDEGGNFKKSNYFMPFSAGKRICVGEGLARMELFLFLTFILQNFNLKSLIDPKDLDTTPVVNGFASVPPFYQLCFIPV
Chain of CYP3A4 (P08684 2-503 limits assumed): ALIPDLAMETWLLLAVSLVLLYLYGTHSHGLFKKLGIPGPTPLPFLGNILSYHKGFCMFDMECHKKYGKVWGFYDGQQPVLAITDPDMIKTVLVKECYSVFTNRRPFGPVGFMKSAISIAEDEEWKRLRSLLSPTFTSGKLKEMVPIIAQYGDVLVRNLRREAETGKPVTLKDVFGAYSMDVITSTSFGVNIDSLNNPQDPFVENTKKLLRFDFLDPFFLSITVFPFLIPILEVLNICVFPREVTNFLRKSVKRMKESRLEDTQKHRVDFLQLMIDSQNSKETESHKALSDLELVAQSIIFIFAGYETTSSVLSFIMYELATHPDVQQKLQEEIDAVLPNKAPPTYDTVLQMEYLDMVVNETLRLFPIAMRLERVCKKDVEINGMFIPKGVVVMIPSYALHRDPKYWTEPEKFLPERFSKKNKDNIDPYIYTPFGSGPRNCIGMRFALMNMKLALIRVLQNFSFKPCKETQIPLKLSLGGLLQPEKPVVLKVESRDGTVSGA

Structure (SMILES): CCOP(=S)(OCC)Oc1nc(Cl)c(Cl)cc1Cl [CPF, Chlorpyrifos]
- Km (CYP3A4): 27.3 µM
- Km of high affinity phase lower than that of low affinity phase (rat liver microsomes): 50 fold
- BMDL10 (EPA, derived from human PBPK-PD model) (RBC AChE): 0.47 mg/kg bw
- ka (absorption rate constant) ([1]; PBK model input, mean, ref Bouchard et al. ([2005])): 0.46 h⁻¹
- fa (fractional absorption), mean ([1]; mean of the reported fa values, ref Timchalk et al. ([2002]), Nolan et al. ([1984])): 0.462 and 0.46
- fa (fractional absorption) ([1]; ref Nolan et al. ([1984])): 0.7
- fa (fractional absorption) ([1]; ref Timchalk et al. ([2002])): 0.224
- Scaled Vmax(app) (CYP1A2; Pathway 1 (CPF to CPO)): 51.81 µmol/h
- Vmax (app) (CYP1A2; Pathway 1 (CPF to CPO)): 3.96 pmol/min/pmolCYP
- Scaled Vmax(app) (CYP1A2; Pathway 2 (CPF to TCPy)): 38.73 µmol/h
- Vmax (app) (CYP1A2; Pathway 2 (CPF to TCPy)): 2.96 pmol/min/pmolCYP
- Km (CYP1A2; [2]): 0.61 µM
- Km (CYP1A2; [3]): 1.25 µM
- Scaled Vmax(app) (CYP2C19; Pathway 1 (CPF to CPO)): 10.81 µmol/h
- Vmax (app) (CYP2C19; Pathway 1 (CPF to CPO)): 2.74 pmol/min/pmolCYP
- Scaled Vmax(app) (CYP2C19; Pathway 2 (CPF to TCPy)): 69.06 µmol/h
- Vmax (app) (CYP2C19; Pathway 2 (CPF to TCPy)): 17.51 pmol/min/pmolCYP
- Km (CYP2C19; [2]): 1.89 µM
- Km (CYP2C19; [3]): 1.37 µM
